Where two headings read alike, the source gives them in different places.
Assays:
Assay type in all cases: cell-based, human
[1] = system: non-senescent control A549 cells; experiment: Nuclei count senolytic assay, TIS model, non-senescent control cells; details: Homo sapiens, A549, Control cells, mean, read-out: Mean % Cell Survival
Procedure, shortened: (§1)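 Nuclei counted by Hoechst 33342 imaging after fixation, following 72 h treatment with compound at 10 nM–10 μM (10-point […], triplicates). Targets were control A549 cells and A549 rendered senescent by 48 h 100 μM etoposide plus 3 days recovery.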

[2] = system: senescent A549 cells (etoposide-induced); experiment: Nuclei count senolytic assay, therapy-induced senescence (TIS) model, senescent cells; details: Homo sapiens, A549, Senescent cells, mean, read-out: Mean % Cell Survival
Procedure, shortened: as §1

[3] = system: senescent IMR90 ER:RAS cells (4-OHT-induced); experiment: Nuclei count (Hoechst, high content imaging) senolytic assay, oncogene-induced senescence (OIS) model, senescent cells; details: Homo sapiens
Procedure, shortened: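 Senolytic read-out as total nuclei per well by automated Hoechst imaging after 72 h compound exposure (10 μM to 10 nM, 10-point […], triplicate), relative to untreated controls. Paired cultures: IMR90 ER:RAS kept non-senescent or made senescent with 100 nM final 4-OHT; ouabain served as positive control.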

With Cc1cnc(C(=O)N[C@H]2CCCCC/C=C\[C@@H]3C[C@@]3(C(=O)NS(=O)(=O)C3CC3)NC(=O)[C@@H]3C[C@@H](Oc4nc5ccccc5c5ccccc45)CN3C2=O)cn1 [Paritaprevir, paritaprevir, reference compound] the viability at 10 µM ([1]; log (dose) [M] -5) was 96.8%, the viability at 4.68 µM ([1]; log (dose) [M] -5.33) was 93% and the viability at 2.19 µM ([1]; log (dose) [M] -5.66) was 96%. For the same compound, the viability at 1 µM ([1]; log (dose) [M] -6) was 95.4%, the viability at 0.468 µM ([1]; log (dose) [M] -6.33) was 98.6% and the viability at 0.219 µM ([1]; log (dose) [M] -6.66) was 97.7%. The viability at 0.1 µM ([1]; log (dose) [M] -7) was 95.4%, the viability at 0.0468 µM ([1]; log (dose) [M] -7.33) was 95.7% and the viability at 0.0219 µM ([1]; log (dose) [M] -7.66) was 95.5%. It also gave a viability at 0.01 µM ([1]; log (dose) [M] -8) of 101%, a viability at 10 µM ([2]; log (dose) [M] -5) of 113% and a viability at 4.68 µM ([2]; log (dose) [M] -5.33) of 107%. It also gave a viability at 2.19 µM ([2]; log (dose) [M] -5.66) of 112%, a viability at 1 µM ([2]; log (dose) [M] -6) of 108% and a viability at 0.468 µM ([2]; log (dose) [M] -6.33) of 112%. For the same compound, the viability at 0.219 µM ([2]; log (dose) [M] -6.66) was 104%, the viability at 0.1 µM ([2]; log (dose) [M] -7) was 112% and the viability at 0.0468 µM ([2]; log (dose) [M] -7.33) was 115%. The viability at 0.0219 µM ([2]; log (dose) [M] -7.66) was 103%, the viability at 0.01 µM ([2]; log (dose) [M] -8) was 103% and the viability at 10 µM ([3]; IMR-90, 72 h, Senescent, log (dose) [M] -5, 72 h, mean n=3 (Fig 3C), read-out: Mean % Cell Survival) was 69.5%. It also gave a viability at 4.677 µM ([3]; IMR-90, 72 h, Senescent, log (dose) [M] -5.33, 72 h, mean n=3 (Fig 3C), read-out: Mean % Cell Survival) of 86.5%, a viability at 2.188 µM ([3]; IMR-90, 72 h, Senescent, log (dose) [M] -5.66, 72 h, mean n=3 (Fig 3C), read-out: Mean % Cell Survival) of 70.9% and a viability at 1 µM ([3]; IMR-90, 72 h, Senescent, log (dose) [M] -6, 72 h, mean n=3 (Fig 3C), read-out: Mean % Cell Survival) of 67.9%. It also gave a viability at 0.4677 µM ([3]; IMR-90, 72 h, Senescent, log (dose) [M] -6.33, 72 h, mean n=3 (Fig 3C), read-out: Mean % Cell Survival) of 78.9%, a viability at 0.2188 µM ([3]; IMR-90, 72 h, Senescent, log (dose) [M] -6.66, 72 h, mean n=3 (Fig 3C), read-out: Mean % Cell Survival) of 76.2% and a viability at 0.1 µM ([3]; IMR-90, 72 h, Senescent, log (dose) [M] -7, 72 h, mean n=3 (Fig 3C), read-out: Mean % Cell Survival) of 79.8%. The viability at 0.04677 µM ([3]; IMR-90, 72 h, Senescent, log (dose) [M] -7.33, 72 h, mean n=3 (Fig 3C), read-out: Mean % Cell Survival) was 84.7%, the viability at 0.02188 µM ([3]; IMR-90, 72 h, Senescent, log (dose) [M] -7.66, 72 h, mean n=3 (Fig 3C), read-out: Mean % Cell Survival) was 86.9% and the viability at 0.01 µM ([3]; IMR-90, 72 h, Senescent, log (dose) [M] -8, 72 h, mean n=3 (Fig 3C), read-out: Mean % Cell Survival) was 70.3%. It also gave a viability at 4.677 µM ([3]; IMR-90, Senescent cells, log (dose) [M] -5.33, individual replicates, SUP FIG 4C, read-out: % Cell Survival) of 87.6%, a viability at 0.1 µM ([3]; IMR-90, Senescent cells, log (dose) [M] -7, individual replicates, SUP FIG 4C, read-out: % Cell Survival) of 75% and a viability at 10 µM ([3]; IMR-90, Senescent, log (dose) [M] -5, read-out: % Cell Survival) of 115%. It also gave a viability at 4.677 µM ([3]; IMR-90, Senescent, log (dose) [M] -5.33, read-out: % Cell Survival) of 110%, a viability at 2.188 µM ([3]; IMR-90, Senescent, log (dose) [M] -5.66, read-out: % Cell Survival) of 113% and a viability at 1 µM ([3]; IMR-90, Senescent, log (dose) [M] -6, read-out: % Cell Survival) of 105%. For the same compound, the viability at 0.4677 µM ([3]; IMR-90, Senescent, log (dose) [M] -6.33, read-out: % Cell Survival) was 111%, the viability at 0.1 µM ([3]; IMR-90, Senescent, log (dose) [M] -7, read-out: % Cell Survival) was 112% and the viability at 0.04677 µM ([3]; IMR-90, Senescent, log (dose) [M] -7.33, read-out: % Cell Survival) was 118%. For the same compound, the viability at 0.01 µM ([3]; IMR-90, Senescent, log (dose) [M] -8, read-out: % Cell Survival) was 107%.

Reference: article PMC10257182, “Discovery of senolytics using machine learning” (Nature Communications, 2023)
